Measured values from the supplement of paper PMC10627819.

Tests used:
S. pneumoniae D39V [1] = experiment: fitness (endpoint OD595 vs no drug) (fraction); higher = more growth
Outline: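 Fitness was defined as the optical density at the transition into stationary phase relative to the robust mean of no-drug control wells. Values were capped at 1. Cultures were started at OD595 0.01 in 384-well plates (30 µl, or 55 µl for S. pneumoniae) in TSB, LB Lennox or CY at 37 °C. OD595 was recorded every 30 min over 14 h, with the first reading subtracted as background.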

S. aureus DSM 20231 = experiment: Bliss interaction score (quartile over a dose matrix) (fitness difference); higher = more antagonism (negative = synergy)
Outline: (§1)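 Combination data were used to infer fitness under each single drug. Fitness is the OD595 at entry into stationary phase divided by the robust mean of the plate's no-drug wells, with a cap of 1. The Bliss score is the observed minus the expected product fitness, summarised by quartiles over technical, biological and donor/recipient replicates.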

S. aureus Newman = experiment: as above
Outline: as §1

B. subtilis 168 = experiment: as above
Outline: as §1

S. pneumoniae D39V [2] = experiment: as above
Outline: as §1
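Wherever Bliss interaction score (quartile over a dose matrix) is given: first quartile when negative (synergy) and third quartile when positive (antagonism).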

C[C@@H](O)[C@H]1C(=O)N2C(C(=O)O)=C(SCCNC=N)C[C@H]12 [Imipenem] + CN[C@H](CC(C)C)C(=O)N[C@H]1C(=O)N[C@@H](CC(N)=O)C(=O)N[C@H]2C(=O)N[C@H]3C(=O)N[C@H](C(=O)N[C@H](C(=O)O)c4cc(O)cc(O)c4-c4cc3ccc4O)[C@H](O)c3ccc(c(Cl)c3)Oc3cc2cc(c3O[C@@H]2O[C@H](CO)[C@@H](O)[C@H](O)[C@H]2O[C@H]2C[C@](C)(N)[C@H](O)[C@H](C)O2)Oc2ccc(cc2Cl)[C@H]1O [Vancomycin]
fitness, S. pneumoniae D39V [1]
Conditions	first compound 0.005 µg/mL	first compound 0.0065 µg/mL	first compound 0.01 µg/mL	first compound 0.013 µg/mL	first compound 0.02 µg/mL	first compound 0.026 µg/mL
partner 0.03125 µg/mL	0.991	–	0.973	–	0.958	–
partner 0.0625 µg/mL	0.943	–	0.928	–	0.922	–
partner 0.125 µg/mL	0.783	0.769	0.767	0.798	0.76	0.817
partner 0.25 µg/mL	–	0.0266	–	0.0839	–	0.0574
partner 0.5 µg/mL	–	0.0186	–	0.0324	–	0.0486

Conditions	Bliss interaction score
B. subtilis 168	-0.0736
S. aureus DSM 20231	0.0423
S. aureus Newman	-0.0669
S. pneumoniae D39V [2]	-0.184

C[C@@H](O)[C@H]1C(=O)N2C(C(=O)O)=C(SCCNC=N)C[C@H]12 [Imipenem] + CO[C@H]1/C=C/O[C@@]2(C)Oc3c(C)c(O)c4c(O)c(c(/C=N/N5CCN(C)CC5)c(O)c4c3C2=O)NC(=O)/C(C)=C\C=C\[C@H](C)[C@H](O)[C@@H](C)[C@@H](O)[C@@H](C)[C@H](OC(C)=O)[C@@H]1C [Rifampicin]
fitness, S. pneumoniae D39V [1], one replicate
Conditions	first compound 0.005 µg/mL	first compound 0.01 µg/mL	first compound 0.02 µg/mL
partner 0.025 µg/mL	0.856	0.81	0.816
partner 0.2 µg/mL	0	0	0

fitness, S. pneumoniae D39V [1]
Conditions	first compound 0.0065 µg/mL	first compound 0.013 µg/mL	first compound 0.02 µg/mL	first compound 0.026 µg/mL
partner 0.05 µg/mL	0.678	0.721	0.726	0.695
partner 0.1 µg/mL	0.402	–	–	0.361
partner 0.2 µg/mL	0.254	–	–	–

Conditions	Bliss interaction score
B. subtilis 168	0.0636
S. aureus DSM 20231	0.0391
S. aureus Newman	0.0149
S. pneumoniae D39V [2]	-0.106

C[C@@H](O)[C@H]1C(=O)N2C(C(=O)O)=C(SCCNC=N)C[C@H]12 [Imipenem] + COc1c(N2C[C@@H]3CCCN[C@@H]3C2)c(F)cc2c(=O)c(C(=O)O)cn(C3CC3)c12 [Moxifloxacin]
fitness, S. pneumoniae D39V [1]
Conditions	first compound 0.005 µg/mL	first compound 0.0065 µg/mL	first compound 0.01 µg/mL	first compound 0.013 µg/mL	first compound 0.02 µg/mL	first compound 0.026 µg/mL
partner 0.0037 µg/mL	–	0.821	–	0.805	–	0.751
partner 0.005 µg/mL	0.968	–	0.949	–	0.963	–
partner 0.0075 µg/mL	–	0.853	–	0.863	–	0.649
partner 0.01 µg/mL	0.99	–	0.981	–	0.976	–
partner 0.015 µg/mL	–	0.856	–	0.67	–	0.65
partner 0.02 µg/mL	0.933	–	0.904	–	0.941	–

Conditions	Bliss interaction score
B. subtilis 168	0.0307
S. aureus DSM 20231	-0.0816
S. aureus Newman	0.0177
S. pneumoniae D39V [2]	0.0521
